Converted amounts (≈) assume the structure as drawn.
Experiment: Solubility of the compound at pH 6.8
Format: physicochemical
Details: buffer

CC(C)CC1n2cncc2CN(Cc2ccc(F)cc2)S1(=O)=O (configuration not stated)
solubility: < 0.5 µM

C[C@@H](c1ccc(Cl)cc1)N1Cc2cncn2C(CC(C)(C)O)S1(=O)=O (some centres not stated)
solubility: 500 µM (≈ 192 µg/mL)

From ChEMBL document CHEMBL1208751 (Bioorg Med Chem Lett, 2010)
